{"source": "paper PMC12766724", "about": "“Synthesis, Anthelmintic Activity, and Mechanism of Action of 5‑Aryl‑1H‑indoles” (Journal of Agricultural and Food Chemistry, 2025)", "key": {"[1]": {"tested_on": "mitochondrial membrane potential of C. elegans young adults", "experiment": "Mitochondrial membrane potential measurement", "assay_type": "in vivo, Caenorhabditis elegans", "conditions": "100 μM; 24 h", "protocol": "After 24 h, the compounds were washed away. Then, the mitochondrial membrane potential was measured using a specialized fluorescent dye (kit MAK147, Sigma-Aldrich). The kit was used according to the manufacturer’s instructions with modified incubation temperature and time (20 °C, 4 h) to account for the fact that living intact worms were used instead of cell cultures. , Dyed worms (approximately 200 per well) were distributed onto a black 96-well plate, and the fluorescence was measured using a Tecan Infinite 200 Pro plate reader.\nDetermining the mechanism of action of compounds is always challenging; however, the nature of their effect, as well as the structural similarity to compounds with known properties, can provide useful insights. One of our hypotheses was that the compounds might interfere with energy production. We based this assumption on the behavior of compound-treated worms (delayed development, lower fecundity, and relatively rapid decrease in motility rates but not necessarily death). Impaired mitochondrial function would be accompanied by a decrease in mitochondrial membrane potential (MMP)."}, "[2]": {"tested_on": "C. elegans complex II mutant RP2700", "experiment": "Scoring of developmental rates, L1 exposed 5 days", "assay_type": "in vivo, Caenorhabditis elegans", "from_the_text": "(§1) Dead or mostly immobile worms, arrested at the L1 stage, received a score of 1. Populations with severely delayed development were scored as 2. More developmentally advanced, but still obviously delayed worms were given the score of 3. Adult worms that produce a noticeably lower number of progeny received a score of 4. Healthy worms that reproduce normally (i.e., hundreds of eggs and larvae are present) were scored as 5 (see Figure C for representative images). In a typical, correctly prepared experiment, vehicle-treated populations should receive a score of 5, while worms treated with ivermectin (positive control) should receive a score of 1. […]"}, "[3]": {"tested_on": "C. elegans complex II mutant RP2702", "experiment": "Scoring of developmental rates, L1 exposed 5 days", "assay_type": "in vivo, Caenorhabditis elegans", "from_the_text": "as §1"}, "[4]": {"tested_on": "C. elegans complex II mutant RP2699", "experiment": "Scoring of developmental rates, L1 exposed 5 days", "assay_type": "in vivo, Caenorhabditis elegans", "from_the_text": "as §1"}, "[5]": {"tested_on": "C. elegans wild-type and MCII mutant strains", "experiment": "Scoring of developmental rates, comparison of strains", "assay_type": "in vivo, Caenorhabditis elegans", "conditions": "L1 exposed 5 days", "from_the_text": "Dead or mostly immobile worms, arrested at the L1 stage, received a score of 1. Populations with severely delayed development were scored as 2. More developmentally advanced, but still obviously delayed worms were given the score of 3. Adult worms that produce a noticeably lower number of progeny received a score of 4. Healthy worms that reproduce normally (i.e., hundreds of eggs and larvae are present) were scored as 5 (see Figure C for representative images). In a typical, correctly prepared experiment, vehicle-treated populations should receive a score of 5, while worms treated with ivermectin (positive control) should receive a score of 1.\nWe attribute this discrepancy to methodological differences: in previous studies, earlier larval stages, longer exposure times, and different evaluation methods, possibly more sensitive than WMicrotracker, were used."}, "[6]": {"tested_on": "C. elegans wild-type and MCII mutants", "experiment": "Recovery of pretreated worms on WMicrotracker ONE", "assay_type": "in vivo, Caenorhabditis elegans", "conditions": "5 or 10 μM for 72 h, then wash-out and recovery", "protocol": "(§2) Briefly, for evaluation of the acute effect of the compounds, age-synchronized young adults of each strain, kept in S complete medium supplemented with E. coli OP50 (3 mg/mL, fresh weight), were transferred onto microtiter plates (96-well, U bottom), and their initial motility was measured for 30 min. […] Afterward, the compounds were washed away, and worms, supplemented with fresh liquid media and food, were distributed onto 96-well plates and allowed to recover. Their activity was measured using WMicrotracker ONE at the indicated time points.\nC. elegans L1 larvae were exposed to 5 or 10 μM of the compounds for 72 h, after which the compounds were washed away, and the recovery of the nematodes was evaluated using WMicrotracker."}, "wild-type C. elegans": {"tested_on": "wild-type C. elegans", "set-up": "method as in previously published data", "conditions": "earlier larval stages, longer exposure times; ref previously published data; cited from earlier work"}, "C. elegans N2": {"tested_on": "C. elegans N2", "experiment": "Scoring of developmental rates, L1 exposed 5 days", "assay_type": "in vivo, Caenorhabditis elegans", "from_the_text": "as §1"}, "[7]": {"tested_on": "C. elegans MCII mutant RP2699", "experiment": "Acute motility of young adults on WMicrotracker ONE", "assay_type": "in vivo, Caenorhabditis elegans", "conditions": "100 μM; 24 h", "protocol": "as §2, with “The effect of compounds on C. elegans N2 and SDH mutant strains was measured in a similar manner. Briefly,” for “Briefly,”\n(§3) To experimentally support this promising initial finding, we tested the effect of i-19 against several C. elegans MCII mutant strains. These nematodes carry point mutations that result in amino acid changes in regions of subunits SDHC and SDHD that contribute to the formation of the ubiquinone-binding pocket, thereby influencing its shape and the ability of inhibitors to interact with the protein. […] The compounds were tested in multiple setups. At first, young adults were exposed to higher doses (100, 50, and 10 μM) of the compounds for up to 48 h, and changes in motility were evaluated using WMicrotracker. For both compounds, we observed a less pronounced decrease in movement rates of MCII mutants compared to wild-type worms, in both a dose- and time-dependent manner (Figure )."}, "[8]": {"tested_on": "C. elegans MCII mutant RP2700", "experiment": "Acute motility of young adults on WMicrotracker ONE", "assay_type": "in vivo, Caenorhabditis elegans", "conditions": "100 μM; 24 h", "protocol": "as §2, with “The effect of compounds on C. elegans N2 and SDH mutant strains was measured in a similar manner. Briefly,” for “Briefly,”\nas §3"}, "[9]": {"tested_on": "C. elegans MCII mutant RP2702", "experiment": "Acute motility of young adults on WMicrotracker ONE", "assay_type": "in vivo, Caenorhabditis elegans", "conditions": "100 μM; 24 h", "protocol": "as §2, with “The effect of compounds on C. elegans N2 and SDH mutant strains was measured in a similar manner. Briefly,” for “Briefly,”\nas §3"}, "C. elegans wild-type N2": {"tested_on": "C. elegans wild-type N2", "experiment": "Acute motility of young adults on WMicrotracker ONE", "assay_type": "in vivo, Caenorhabditis elegans", "conditions": "100 μM; 24 h", "protocol": "as §2, with “The effect of compounds on C. elegans N2 and SDH mutant strains was measured in a similar manner. Briefly,” for “Briefly,”\nas §3"}}, "data": [{"smiles": "O=C(NCCc1ncc(C(F)(F)F)cc1Cl)c1ccccc1C(F)(F)F", "note": "[fluopyram, reference compound]", "values": [{"measurement": "MMP signal lower than in vehicle-treated control animals", "setting": "[1]", "value": "~85", "unit": "%"}, {"measurement": "mean score (1-5)", "setting": "[2]; 0.012 µM", "value": 5}, {"measurement": "mean score (1-5)", "setting": "[2]; 0.024 µM", "value": 5}, {"measurement": "mean score (1-5)", "setting": "[2]; 0.049 µM", "value": 5}, {"measurement": "mean score (1-5)", "setting": "[2]; 0.195 µM", "value": 4.778}, {"measurement": "mean score (1-5)", "setting": "[2]; 0.391 µM", "value": 4.444}, {"measurement": "mean score (1-5)", "setting": "[2]; 0.781 µM", "value": 3.556}, {"measurement": "mean score (1-5)", "setting": "[2]; 1.563 µM", "value": 3.667}, {"measurement": "mean score (1-5)", "setting": "[2]; 3.125 µM", "value": 2.444}, {"measurement": "mean score (1-5)", "setting": "[2]; 6.25 µM", "value": 1.222}, {"measurement": "mean score (1-5)", "setting": "[2]; 12.5 µM", "value": 1}, {"measurement": "mean score (1-5)", "setting": "[2]; 25 µM", "value": 1.333}, {"measurement": "mean score (1-5)", "setting": "[2]; 50 µM", "value": 1}, {"measurement": "mean score (1-5)", "setting": "[2]; 100 µM", "value": 1}, {"measurement": "mean score (1-5)", "setting": "[3]; 0.012 µM", "value": 5}, {"measurement": "mean score (1-5)", "setting": "[3]; 0.024 µM", "value": 5}, {"measurement": "mean score (1-5)", "setting": "[3]; 0.049 µM", "value": 5}, {"measurement": "mean score (1-5)", "setting": "[3]; 0.195 µM", "value": 4.889}, {"measurement": "mean score (1-5)", "setting": "[3]; 0.391 µM", "value": 4.667}, {"measurement": "mean score (1-5)", "setting": "[3]; 0.781 µM", "value": 4.111}, {"measurement": "mean score (1-5)", "setting": "[3]; 1.563 µM", "value": 3.556}, {"measurement": "mean score (1-5)", "setting": "[3]; 3.125 µM", "value": 3.111}, {"measurement": "mean score (1-5)", "setting": "[3]; 6.25 µM", "value": 2.333}, {"measurement": "mean score (1-5)", "setting": "[3]; 12.5 µM", "value": 1}, {"measurement": "mean score (1-5)", "setting": "[3]; 25 µM", "value": 1}, {"measurement": "mean score (1-5)", "setting": "[3]; 50 µM", "value": 1}, {"measurement": "mean score (1-5)", "setting": "[3]; 100 µM", "value": 1}, {"measurement": "mean score (1-5)", "setting": "[4]; 0.012 µM", "value": 4.667}, {"measurement": "mean score (1-5)", "setting": "[4]; 0.024 µM", "value": 4.444}, {"measurement": "mean score (1-5)", "setting": "[4]; 0.049 µM", "value": 4}, {"measurement": "mean score (1-5)", "setting": "[4]; 0.195 µM", "value": 4.556}, {"measurement": "mean score (1-5)", "setting": "[4]; 0.391 µM", "value": 4.444}, {"measurement": "mean score (1-5)", "setting": "[4]; 0.781 µM", "value": 3.889}, {"measurement": "mean score (1-5)", "setting": "[4]; 1.563 µM", "value": 3.111}, {"measurement": "mean score (1-5)", "setting": "[4]; 3.125 µM", "value": 3.333}, {"measurement": "mean score (1-5)", "setting": "[4]; 6.25 µM", "value": 1.222}, {"measurement": "mean score (1-5)", "setting": "[4]; 12.5 µM", "value": 1}, {"measurement": "mean score (1-5)", "setting": "[4]; 25 µM", "value": 1}, {"measurement": "mean score (1-5)", "setting": "[4]; 50 µM", "value": 1.222}, {"measurement": "mean score (1-5)", "setting": "[4]; 100 µM", "value": 1}, {"measurement": "concentrations at which all strains were severely affected", "setting": "[5]", "value": "> 6.25", "unit": "µM"}, {"measurement": "resistance of MCII mutants compared to wild-type", "setting": "[6]", "value": "increased resistance of the MCII mutants"}, {"measurement": "concentrations that strongly affect wild-type C. elegans", "setting": "wild-type C. elegans", "value": "below 1 μM"}, {"measurement": "mean score (1-5)", "setting": "C. elegans N2; 0.012 µM", "value": 4.667}, {"measurement": "mean score (1-5)", "setting": "C. elegans N2; 0.024 µM", "value": 4.333}, {"measurement": "mean score (1-5)", "setting": "C. elegans N2; 0.049 µM", "value": 3.667}, {"measurement": "mean score (1-5)", "setting": "C. elegans N2; 0.195 µM", "value": 2.778}, {"measurement": "mean score (1-5)", "setting": "C. elegans N2; 0.391 µM", "value": 2}, {"measurement": "mean score (1-5)", "setting": "C. elegans N2; 0.781 µM", "value": 1}, {"measurement": "mean score (1-5)", "setting": "C. elegans N2; 1.563 µM", "value": 1}, {"measurement": "mean score (1-5)", "setting": "C. elegans N2; 3.125 µM", "value": 1}, {"measurement": "mean score (1-5)", "setting": "C. elegans N2; 6.25 µM", "value": 1}, {"measurement": "mean score (1-5)", "setting": "C. elegans N2; 12.5 µM", "value": 1}, {"measurement": "mean score (1-5)", "setting": "C. elegans N2; 25 µM", "value": 1}, {"measurement": "mean score (1-5)", "setting": "C. elegans N2; 50 µM", "value": 1}, {"measurement": "mean score (1-5)", "setting": "C. elegans N2; 100 µM", "value": 1}, {"measurement": "decrease of mean activity counts", "setting": "[7]", "value": 53, "unit": "%"}, {"measurement": "decrease of mean activity counts", "setting": "[8]", "value": 16, "unit": "%"}, {"measurement": "decrease of mean activity counts", "setting": "[9]", "value": 28, "unit": "%"}, {"measurement": "decrease of mean activity counts", "setting": "C. elegans wild-type N2", "value": 60, "unit": "%"}]}]}
